Earlier results as cited in patent US20150045432A1, “DIETARY SUPPLEMENT COMPRISING AMINO ACIDS IN A PALATABLE LIQUID FORMULATION THAT PROMOTES RESTFUL SLEEP, RECOVERY FROM STRESS AND EXERCISE AND STRENGTHENS THE IMMUNE SYSTEM” (North Health Essentials, LLC, priority 2013, published 2015).

Experiments:
[1] = rats
[2] = 3 grams of glycine, bolus before bedtime
[3] = taken within an hour before going to bed, versus those who did not take the amino acid
[4] = after 60 minutes of administration, compared to water or L-threonine

Row | Structure (SMILES) | distribution in the brain [1] | daytime sleepiness [2] | sleep quality and efficacy [2] | brainwave patterns of non-REM sleep and sleep length [3] | alpha waves [4] | beta waves [4] | immunity under stress conditions (in vivo) | time after administration within which relaxant effects could be seen (induce relaxation and diminish anxiety) [h]
1 | NCC(=O)O [glycine] | accumulates in the pineal gland | lessened daytime sleepiness | improved sleep quality and efficacy | showed brainwave patterns associated with non-REM sleep sooner and slept longer | – | – | – | –
2 | NCCCC(=O)O [GABA, gamma-aminobutyric acid] | – | – | – | – | significantly increases alpha waves | decreases beta waves | could enhance immunity | ≤ 1
